Measured values from the NIST ThermoML archive (doi:10.1021/acs.jced.9b00306).
Numbers after ± are expanded uncertainties.

Settings: Liquid, Ebulliometric method (Recirculating still)

## OCCCCCCO [1,6-hexanediol]
456.93 K
  vapor or sublimation pressure: 10 ± 1 kPa
474.79 K
  vapor or sublimation pressure: 20 ± 1 kPa
525.1 K
  vapor or sublimation pressure: 99 ± 1 kPa

## COC(=O)CCCCC(=O)OC [dimethyl 1,6-hexanedioate]
424.91 K
  vapor or sublimation pressure: 7.79 ± 0.51 kPa
431.2 K
  vapor or sublimation pressure: 10 ± 1 kPa
441.21 K
  vapor or sublimation pressure: 14.56 ± 0.52 kPa
450.08 K
  vapor or sublimation pressure: 20 ± 1 kPa
460.47 K
  vapor or sublimation pressure: 28.55 ± 0.59 kPa
474.33 K
  vapor or sublimation pressure: 44.63 ± 0.63 kPa
480.72 K
  vapor or sublimation pressure: 54.37 ± 0.72 kPa
488.62 K
  vapor or sublimation pressure: 68.77 ± 0.79 kPa
496.14 K
  vapor or sublimation pressure: 85.45 ± 0.89 kPa
501 K
  vapor or sublimation pressure: 99 ± 1 kPa
504.86 K
  vapor or sublimation pressure: 108.77 ± 1 kPa
512 K
  vapor or sublimation pressure: 131.95 ± 1.2 kPa
518.78 K
  vapor or sublimation pressure: 157.68 ± 1.3 kPa
523.92 K
  vapor or sublimation pressure: 179.21 ± 1.5 kPa
531.44 K
  vapor or sublimation pressure: 216.3 ± 1.6 kPa

## CO [methanol]
337.69 K
  vapor or sublimation pressure: 101.3 ± 1.6 kPa

## O [water]
373.15 K
  vapor or sublimation pressure: 101.3 ± 1.6 kPa
